Values joined by “and” are separate entries in the source; they are usually repeats but may differ in a detail not shown here. Identical values can stand only once. Like-named read-outs stand apart in the source and are kept apart here.
How the values were obtained:
[1] = system: Hyperthermia caused by yeast; assay: Antipyretic activity, hyperthermia caused by yeast in rats (Boissier and Simon); format: in vivo
Text: The experiment has been carried out in rats in which the body temperature has been increased by means of yeast by the method according to J. R. Boissier and P. Simon (Therapie, 1962, 17, 1225). […] It is, however, necessary to keep in mind the difference in molecular weight between the two substances under examination.

[2] = system: subplantar edema caused by carrageenan in rats; assay: Edema caused by carrageenan in rats (Winter et al); format: in vivo; details: oral, AFP 802 187 mg/Kg, ibuprofen 100 mg/Kg; for % inhibition vs control: area
Method: The anti-inflammatory activity has been investigated by a series of tests using edema caused by carrageenan and kaolin pleuritis caused by carrageenan and arthritis caused by an adjuvant.
The plyethysmographic observations of the edema have been carried out every hour for a period of 7 hours after the induction of the edema.

[3] = system: Pleuritis caused by carrageenan in rats; assay: Pleuritis caused by carrageenan in rats (Vinegar et al); format: in vivo; details: for Number of leucocytes × 1,000 / Volume of exudate in cc / Number of leucocytes, % inhibition with respect to the controls / Volume of exudate, % inhibition with respect to the controls: 100 mg/Kg oral; for effect in pleuritis (in words): 24 hours after the administration
[4] = system: Arthritis caused by the adjuvant of Freund in rats; assay: Arthritis caused by the adjuvant in rats (Winter and Nuss); format: in vivo; details: for Suprarenal / Thymus: weight
Text: For the evaluation for the efficiency of the substance the following parameters have been considered: diameter of articulations, volume of the hind paws, hematological and hematochemical examination, weight of the suprarenal glands and thymus.

[5] = system: Writhing caused by phenylquinone in mice; assay: Writhing caused by phenylquinone in mice (Siegmung et al); format: in vivo
Text: The analgesic activity of AFP 802 has been studied by means of the writhing test with phenylquinone in mice and by means of the test of Randall and Selitto in rats.

in vivo [6] = format: in vivo; details: mouse, in vivo, mice, read-out: DL50 (limit of error 95%)
mice = assay: in vivo; format: in vivo; details: mice and rats, particularly by the oral route
[7] = system: Edema caused by kaolin in rats; assay: Edema caused by kaolin in rats (Coulon et al); details: 5 consecutive days; for % inhibition with respect to the controls: area; for % inhibition with respect to the controls / Area (area under the curve of the increase of the diameter of the articulations): oral every 24 hours, dose AFP 802 115, ibuprofen 60
[8] = Organ to plasma ratio of ibuprofen concentrations in rats; format: in vivo; details: vs administration of ibuprofen
Method: (§1) AFP 802 has been administered orally in the dose of 200 mg/kg in rats. […] The animals are killed in groups of four after the following time periods; 15 minutes, 30 minutes, 1 hour, 2 hours, 4 hours, 6 hours and 24 hours.

[9] = Pharmacokinetics, plasma levels after oral administration in rats; format: in vivo
Method: as §1

gastric mucosa = system: gastric mucosa; set-up: species or system rats; details: rat, in vivo, po
in vivo [10] = details: rat, rats, read-out: DL50 (limit of error 95%)
[11] = system: Test of Randall and Selitto, in rats; assay: Test of Randall and Selitto in rats; format: in vivo; details: for % INHIBITION WITH RESPECT TO THE CONTROL, I / % INHIBITION WITH RESPECT TO THE CONTROL, NI: area; for % INHIBITION WITH RESPECT TO THE CONTROL, I / AREA ABSOLUTE VALUE, I: inflamed paw; for % INHIBITION WITH RESPECT TO THE CONTROL, I / % INHIBITION WITH RESPECT TO THE CONTROL, NI / AREA ABSOLUTE VALUE, I / AREA ABSOLUTE VALUE, NI: 100 mg/Kg oral; for % INHIBITION WITH RESPECT TO THE CONTROL, NI / AREA ABSOLUTE VALUE, NI: not inflamed paw; for AREA ABSOLUTE VALUE, I / AREA ABSOLUTE VALUE, NI: area of the increase of the pressure tolerated
Method: The analgesic activity of AFP 802 has been studied by means of the writhing test with phenylquinone in mice and by means of the test of Randall and Selitto in rats. Test of Randall and Selitto in rats. This test was carried out according to the method of L. Randall and J. Selitto reported in Arch. Int. Pharmacodyn., 1957 III, 409. […] The variations of pressure tolerated without variation in pain have been determined each hour, for 5 consecutive hours and the results are reported in Table 10.

[12] = 1 hour after treatment, 100 mg/Kg oral
[13] = 2 hours after treatment, 100 mg/Kg oral
[14] = 3 hours after treatment, 100 mg/Kg oral
[15] = 4 hours after treatment, 100 mg/Kg oral
[16] = 5 hours after treatment, 100 mg/Kg oral
[17] = both paws, area under the curve of the increases, 100 mg/Kg/die oral

## COc1cc(C(=O)OCC(C)c2ccc(CC(C)C)cc2)cc(OC)c1OC (stereo not shown) [AFP 802, 2-(4-isobutylphenyl)1-propanol 3,4,5-trimethoxybenzoate]
[1]; 100 mg/Kg oral
  % inhibition with respect to control: 86.12%
[1]; [12]
  Rectal temperature: 38.22 °C
[1]; [13]
  Rectal temperature: 37.75 °C
[1]; [14]
  Rectal temperature: 37.51 °C
[1]; [15]
  Rectal temperature: 37.16 °C
[1]; [16]
  Rectal temperature: 37.04 °C
[1]; Basal, 100 mg/Kg oral group
  Rectal temperature: 38.73 °C
[1]; equal dose, oral
  antipyretic activity compared with ibuprofen (in words): only slightly inferior to the activity of an equal dose of ibuprofen
[1]; rat, in vivo
  duration of action compared with ibuprofen (in words): longer duration of action
[2]; 0 hours
  Average volume of the paw: 22.6
[2]; 1 hour
  Average volume of the paw: 27.9
[2]; 2 hours
  Average volume of the paw: 28.6
[2]; 3 hours
  Average volume of the paw: 28.4
[2]; 4 hours
  Average volume of the paw: 28.9
[2]; 5 hours
  Average volume of the paw: 29.6
[2]
  % inhibition vs control: 60.4%
  Area Absolute Value: 119.3
[3]; 5 hours
  Number of leucocytes × 1,000: 4,804 × 1,000
  Volume of exudate in cc: 0.56 cc
[3]; 5 hours, 100 mg/kg
  Number of leucocytes, % inhibition with respect to the controls: 71.80% and 72%
  Volume of exudate, % inhibition with respect to the controls: 43.43% and 43%
[3]; 5 hours, equal doses by weight
  effect in pleuritis compared with ibuprofen (in words): analogous to the values obtained by administration of equal doses by weight of ibuprofen
[3]
  effect in pleuritis (in words): practically unchanged
[3]; 24 hours
  Number of leucocytes × 1,000: 7,676 × 1,000
  Number of leucocytes, % inhibition with respect to the controls: 58.05%
  Volume of exudate in cc: 0.47 cc
  Volume of exudate, % inhibition with respect to the controls: 48.91%
[4]; 100 mg/Kg/die oral
  ALBUMIN (%): 70.3 ± 0.97%
  GLOBULIN (%) α1: 7.2 ± 0.36%
  GLOBULIN (%) α2: 6.2 ± 0.38%
  GLOBULIN (%) β1: 11.7 ± 0.30%
  GLOBULIN (%) β2: 5.7 ± 0.45%
  GLOBULIN (%) γ: 2.0 ± 0.31%
  Hematocrit: 46.1 ± 0.6
  Red Cells: 5,912.600 ± 1.434 × mm^3
  VES: 0.9 ± 0.1
  Suprarenal: 64.5 ± 3.3 mg
  Thymus: 422.3 ± 19.1 mg
[4]; [17]
  Σ Diameter D + S, Area: 2,602.0
  Σ Volume D + S, Area: 15,652
[4]; both paws, 100 mg/Kg/die oral
  Σ Diameter D + S, % inhibition: 71.08%
  Σ Volume D + S, % inhibition: 47.76%
[4]; oral, 45 consecutive days, 6 days per week
  activity in adjuvant arthritis (in words): essentially analogous to that of ibuprofen
[5]; 100 mg/Kg oral
  % inhibition with respect to the control: 78.2%
  No. of Contorsions: 4.5
[5]; 200 mg/Kg oral
  % inhibition with respect to the control: 89.1%
  No. of Contorsions: 2.3
[5]; equal weight, oral
  analgesic activity compared with ibuprofen (in words): equal activity of the two products
In vivo [6]; ip, intraperitoneal route
  LD50: 1750 mg/kg
In vivo [6]; oral route
  LD50: > 4000 mg/kg
mice
  DL50 compared with ibuprofen (in words): more favorable than ibuprofen particularly by the oral route
[7]
  % inhibition with respect to the controls: 44.10%
  Area (area under the curve of the increase of the diameter of the articulations): 9799.5 mm^2
[7]; equimolar oral doses
  inhibition of the inflammation (in words): inhibits the inflammation to a substantial extent with values which overlap with the values obtained in the case of ibuprofen
[8]; kidney
  ratio of the organ to the plasma for ibuprofen concentrations (in words): lower in the case of kidney
[8]; liver, lungs and uterus
  ratio of the organ to the plasma for ibuprofen concentrations (in words): higher in the case of liver, lungs and uterus
[9]; 15 minutes and 30 minutes after oral 200 mg/kg
  presence in the blood fluid (in words): presence already after a short period of time in the blood fluid
[9]; AFP 802 200 mg/kg vs ibuprofen 100 mg/kg, oral
  area under the curve of the plasma levels of ibuprofen (AUC) (in words): substantially similar in the administration of the two substances
[9]; ibuprofen after AFP 802 vs ibuprofen in equimolar doses
  plasma levels of ibuprofen over time (in words): substantially latent with respect to ibuprofen in equimolar doses
[9]; ibuprofen after oral AFP 802 200 mg/kg
  time when ibuprofen (active metabolite) begins to appear in the blood (in words): the first hour which is the time when ibuprofen, which is its active metabolite, begins to appear
[9]; oral 200 mg/kg
  bioavailability by the oral route (in words): readily bioavailability by the oral route
  presence in the blood after the first hour (in words): found in the blood even after the first hour
Gastric mucosa
  effects of gastric lesion (in words): almost negligible
In vivo [10]; ip, intraperitoneal route
  LD50: 193 mg/kg
In vivo [10]; oral route
  LD50: > 4000 mg/kg
[11]
  % INHIBITION WITH RESPECT TO THE CONTROL, I: 110.89%
  % INHIBITION WITH RESPECT TO THE CONTROL, NI: 46.93%
  AREA ABSOLUTE VALUE, I: 11.7 ± 22.1
  AREA ABSOLUTE VALUE, NI: -61.20 ± 16.39
[11]; limb in which no injections have been made
  activity expressed in percent of inhibition of the area (in words): fair, lower than the activity of ibuprofen
[11]; limbs affected by edema
  activity expressed in percent of inhibition of the area (in words): high, superior to the activity of ibuprofen

## CC(C)Cc1ccc(C(C)C(=O)O)cc1 (stereo not shown) [Ibuprofen, ibuprofen, reference compound]
[1]; 100 mg/Kg oral
  % inhibition with respect to control: 121.24%
[1]; [12]
  Rectal temperature: 37.71 °C
[1]; [13]
  Rectal temperature: 37.43 °C
[1]; [14]
  Rectal temperature: 37.36 °C
[1]; [15]
  Rectal temperature: 36.87 °C
[1]; [16]
  Rectal temperature: 37.12 °C
[1]; Basal, 100 mg/Kg oral group
  Rectal temperature: 38.34 °C
[2]
  % inhibition vs control: 65.0%
  Area Absolute Value: 102.8
[3]; 5 hours
  Number of leucocytes × 1,000: 4,499 × 1,000
  Number of leucocytes, % inhibition with respect to the controls: 73.60%
[3]
  effect in pleuritis (in words): practically inactive
[3]; 24 hours
  Number of leucocytes × 1,000: 18,470 × 1,000
  Number of leucocytes, % inhibition with respect to the controls: 0.92%
[4]; 100 mg/Kg/die oral
  ALBUMIN (%): 68.0 ± 2.0%
  GLOBULIN (%) α1: 8.8 ± 1.07%
  GLOBULIN (%) α2: 5.5 ± 0.34%
  GLOBULIN (%) β1: 13.9 ± 0.45%
  GLOBULIN (%) β2: 5.9 ± 0.43%
  GLOBULIN (%) γ: 1.9 ± 0.13%
  Hematocrit: 45.4 ± 1.04
  Leucocytes: 7,946 ± 380.5 × mm^3
  Red Cells: 5,265.300 ± 1.003 × mm^3
  VES: 1.7 ± 0.9
  Suprarenal: 65.6 ± 3.4 mg
  Thymus: 375.0 ± 24.3 mg
[4]; [17]
  Σ Diameter D + S, Area: 2,616.2
[4]; both paws, 100 mg/Kg/die oral
  Σ Diameter D + S, % inhibition: 70.92%
[5]; 100 mg/Kg oral
  % inhibition with respect to the control: 78.6%
  No. of Contorsions: 4.5
[5]; 200 mg/Kg oral
  % inhibition with respect to the control: 86.7%
  No. of Contorsions: 2.8
[7]
  % inhibition with respect to the controls: 38.24%
  Area (area under the curve of the increase of the diameter of the articulations): 10799.5 mm^2
[11]
  % INHIBITION WITH RESPECT TO THE CONTROL, I: 45.41%
  % INHIBITION WITH RESPECT TO THE CONTROL, NI: 65.35%
  AREA ABSOLUTE VALUE, I: -58.6 ± 25.25
  AREA ABSOLUTE VALUE, NI: -39.95 ± 33.48
